Measurements as given in patent US11230526B1, “Cylcoalkenyl derivatives useful as agonists of the GPR120 and/or GPR40 receptors” (Janssen Pharmaceutica NV, priority 2018, dated 2022).

Columns and labels:
[1] = biological target: T1, human GPR40 (Homo sapiens, UniProt O14842); assay: GPR40 calcium flux assay, human GPR40; assay type: cell-based; details: HEK293 cells stably expressing GPR40; table does not say human or rat
T1 construct: expressed in transfected cells
How it was run: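 Cells preincubated 1 h at 37° C. in HBSS, 20 mM HEPES, 0.1% BSA, then Fluo 8 calcium dye 30 min at 37° C. and 15 min at room temperature.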

[2] = biological target: T2, Human GPR120 short form (Homo sapiens, UniProt Q5NUL3); assay: Human GPR120 calcium flux assay, Procedure Calcium B (4200 cells/well); assay type: cell-based
T2 construct: expressed in transfected cells
T2 sequence (Q5NUL3 1-361): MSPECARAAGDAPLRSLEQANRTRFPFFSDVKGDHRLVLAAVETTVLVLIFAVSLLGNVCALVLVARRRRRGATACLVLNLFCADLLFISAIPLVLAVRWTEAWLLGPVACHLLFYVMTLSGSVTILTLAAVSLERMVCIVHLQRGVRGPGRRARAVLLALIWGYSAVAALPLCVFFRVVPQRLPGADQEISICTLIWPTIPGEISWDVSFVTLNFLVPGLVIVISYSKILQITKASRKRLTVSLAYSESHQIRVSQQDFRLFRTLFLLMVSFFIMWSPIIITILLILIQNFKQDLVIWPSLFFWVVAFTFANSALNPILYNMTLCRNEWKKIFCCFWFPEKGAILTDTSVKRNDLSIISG
How it was run: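 HEK293 cells stably expressing human GPR120 (NM_001195755.1), 4200 cells/well, starved 1 h and loaded with Fluo-4 NW plus probenecid. Ligand-evoked calcium flux read on FLIPR for 300 s after a 10 s baseline. RFU = Fmax−Fmin; EC50 from four-parameter concentration-response fit.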

T1 sequence (O14842 whole entry): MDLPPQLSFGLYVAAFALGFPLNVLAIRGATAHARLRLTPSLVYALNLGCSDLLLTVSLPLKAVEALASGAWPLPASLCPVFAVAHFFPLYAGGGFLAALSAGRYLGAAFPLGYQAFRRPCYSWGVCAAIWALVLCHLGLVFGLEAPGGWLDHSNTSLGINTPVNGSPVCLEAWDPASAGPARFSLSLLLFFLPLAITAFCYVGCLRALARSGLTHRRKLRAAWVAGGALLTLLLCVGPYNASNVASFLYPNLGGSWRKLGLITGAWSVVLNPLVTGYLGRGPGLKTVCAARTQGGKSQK

Row | EC50 [1] | EC50 [2] | Compound
1 | 746 nM | 866 nM | Cc1cc(OCC2=C(c3ccc(Cl)cc3)C(C)CC2)c(F)cc1CCC(=O)O (stereo not drawn) [Compound 317, 3-[4-[[2-(4-chlorophenyl)-3-methyl-cyclopenten-1-yl]methoxy]-5-fluoro-2-methyl-phenyl]Propanoic Acid]
2 | 55 nM | 623 nM | O=C(O)CCc1ccc(OCC2=C(Cc3ccccc3)CCC2)cc1C(F)(F)F [Compound 319, 3-[4-[(2-benzylcyclopenten-1-yl)methoxy]-2-(trifluoromethyl)phenyl]Propanoic Acid]
3 | 543 nM | 998 nM | CC1CCC(COc2ccc(CCC(=O)O)c(Cl)c2)=C1c1ccccc1 (stereo not drawn) [Compound 320, 3-[2-chloro-4-[(3-methyl-2-phenyl-cyclopenten-1-yl)methoxy]phenyl]Propanoic Acid]
4 | 2640 nM | 733 nM | CC1CCC(COc2ccc(CCC(=O)O)cc2)=C1c1ccccc1 (stereo not drawn) [Compound 321, 3-[4-[(3-methyl-2-phenyl-cyclopenten-1-yl)methoxy]phenyl]Propanoic Acid]
5 | 328 nM | 1140 nM | O=C(O)CCc1ccc(OCC2=C(Cc3ccccc3)CCC2)cc1 [Compound 322, 3-[4-[(2-benzylcyclopenten-1-yl)methoxy]phenyl]Propanoic Acid]
6 | 2230 nM | 1070 nM | Cc1cc(OCC2=C(c3ccccc3)C(C)CC2)c(F)cc1CCC(=O)O (stereo not drawn) [Compound 323, 3-[5-fluoro-2-methyl-4-[(3-methyl-2-phenyl-cyclopenten-1-yl)methoxy]phenyl]Propanoic Acid]
7 | 2770 nM | > 5000 nM | Cc1cc(OCC2=C(c3ccc(OC(F)(F)F)cc3)CCC2)c(F)cc1CCC(=O)O [Compound 325, 3-[5-fluoro-2-methyl-4-[[2-[4-(trifluoromethoxy)phenyl]cyclopenten-1-yl]methoxy]phenyl]Propanoic Acid]
8 | 4780 nM | 157 nM | Cc1ccc(C2=C(COc3cc(C)c(CCC(=O)O)cc3F)CCC2)cc1 [Compound 326, 3-[5-fluoro-2-methyl-4-[[2-(p-tolyl)cyclopenten-1-yl]methoxy]phenyl]Propanoic Acid]
9 | 205 nM | 983 nM | CC1CCC(COc2ccc(CCC(=O)O)c(Cl)c2)=C1c1ccc(Cl)cc1 (stereo not drawn) [Compound 327, 3-[2-chloro-4-[[2-(4-chlorophenyl)-3-methyl-cyclopenten-1-yl]methoxy]phenyl]Propanoic Acid]
10 | 639 nM | 307 nM | CC1CCC(COc2ccc(CCC(=O)O)cc2)=C1c1ccc(Cl)cc1 (stereo not drawn) [Compound 328, 3-[4-[[2-(4-chlorophenyl)-3-methyl-cyclopenten-1-yl]methoxy]phenyl]Propanoic Acid]
11 | 101 nM | 1600 nM | O=C(O)CCc1ccc(OCC2=C(Cc3ccccc3)CCC2)cc1Cl [Compound 329, 3-[4-[(2-benzylcyclopenten-1-yl)methoxy]-2-chloro-phenyl]Propanoic Acid]
12 | > 5000 nM | 492 nM | O=C(O)CCc1cc(F)c(OCC2=C(Cc3ccccc3)CCC2)c(F)c1 [Compound 330, 3-[4-[(2-benzylcyclopenten-1-yl)methoxy]-3,5-difluoro-phenyl]Propanoic Acid]
13 | 3340 nM | > 5000 nM | Cc1ccc(C2=C(COc3ccc(CCC(=O)O)c(C(F)(F)F)c3)CCC2)c(C(C)C)c1 [Compound 331, 3-[4-[[2-(2-isopropyl-4-methyl-phenyl)cyclopenten-1-yl]methoxy]-2-(trifluoromethyl)phenyl]Propanoic Acid]
14 | 1300 nM | 191 nM | CC1CCC(c2ccc(Cl)cc2)=C1COc1ccc(CCC(=O)O)cc1 (stereo not drawn) [Compound 332, 3-[4-[[2-(4-chlorophenyl)-5-methyl-cyclopenten-1-yl]methoxy]phenyl]Propanoic Acid]
15 | 1010 nM | 427 nM | Cc1cc(OCC2=C(c3ccc(Cl)cc3)CCC2C)c(F)cc1CCC(=O)O (stereo not drawn) [Compound 333, 3-[4-[[2-(4-chlorophenyl)-5-methyl-cyclopenten-1-yl]methoxy]-5-fluoro-2-methyl-phenyl]Propanoic Acid]
16 | 2130 nM | 1730 nM | CC1CCC(c2ccccc2)=C1COc1ccc(CCC(=O)O)c(Cl)c1 (stereo not drawn) [Compound 334, 3-[2-chloro-4-[(5-methyl-2-phenyl-cyclopenten-1-yl)methoxy]phenyl]Propanoic Acid]
17 | 428 nM | 562 nM | CC1CCC(c2ccc(Cl)cc2)=C1COc1ccc(CCC(=O)O)c(C(F)(F)F)c1 (stereo not drawn) [Compound 336, 3-[4-[[2-(4-chlorophenyl)-5-methyl-cyclopenten-1-yl]methoxy]-2-(trifluoromethyl)phenyl]Propanoic Acid]

Row | EC50 [1] | EC50 [2] | Compound
18 | 519 nM | 336 nM | CC1CCC(c2ccc(Cl)cc2)=C1COc1ccc(CCC(=O)O)c(Cl)c1 (stereo not drawn) [Compound 337, 3-[2-chloro-4-[[2-(4-chlorophenyl)-5-methyl-cyclopenten-1-yl]methoxy]phenyl]Propanoic Acid]
19 | 2860 nM | 725 nM | Cc1cc(OCC2=C(c3ccccc3)CCC2C)c(F)cc1CCC(=O)O (stereo not drawn) [Compound 338, 3-[5-fluoro-2-methyl-4-[(5-methyl-2-phenyl-cyclopenten-1-yl)methoxy]phenyl]Propanoic Acid]
20 | 356 nM | 803 nM | Cc1cc(OCC2=C(c3cc(Cl)ccc3F)CCC2)c(F)cc1CCC(=O)O [Compound 339, 3-[4-[[2-(5-chloro-2-fluoro-phenyl)cyclopenten-1-yl]methoxy]-5-fluoro-2-methyl-phenyl]Propanoic Acid]
21 | 944 nM | 743 nM | Cc1ccc(F)c(C2=C(COc3cc(C)c(CCC(=O)O)cc3F)CCC2)c1 [Compound 340, 3-[5-fluoro-4-[[2-(2-fluoro-5-methyl-phenyl)cyclopenten-1-yl]methoxy]-2-methyl-phenyl]Propanoic Acid]
22 | 281 nM | 447 nM | Cc1ccc(F)c(C2=C(COc3ccc(CCC(=O)O)c(C(F)(F)F)c3)CCC2)c1 [Compound 341, 3-[4-[[2-(2-fluoro-5-methyl-phenyl)cyclopenten-1-yl]methoxy]-2-(trifluoromethyl)phenyl]Propanoic Acid]
23 | 322 nM | 515 nM | O=C(O)CCc1ccc(OCC2=C(c3cc(Cl)ccc3F)CCC2)cc1Cl [Compound 342, 3-[2-chloro-4-[[2-(5-chloro-2-fluoro-phenyl)cyclopenten-1-yl]methoxy]phenyl]Propanoic Acid]
24 | 1100 nM | 1380 nM | Cc1ccc(F)c(C2=C(COc3ccc(CCC(=O)O)c(Cl)c3)CCC2)c1 [Compound 343, 3-[2-chloro-4-[[2-(2-fluoro-5-methyl-phenyl)cyclopenten-1-yl]methoxy]phenyl]Propanoic Acid]
25 | 137 nM | 520 nM | O=C(O)CCc1ccc(OCC2=C(c3cc(Cl)ccc3F)CCC2)cc1C(F)(F)F [Compound 344, 3-[4-[[2-(5-chloro-2-fluoro-phenyl)cyclopenten-1-yl]methoxy]-2-(trifluoromethyl)phenyl]Propanoic Acid]
26 | 67 nM | 3020 nM | Cc1ccc(CC2=C(COc3ccc(CCC(=O)O)c(C(F)(F)F)c3)CCC2)cc1 [Compound 345, 3-[4-[[2-(p-tolylmethyl)cyclopenten-1-yl]methoxy]-2-(trifluoromethyl)phenyl]Propanoic Acid]
27 | 228 nM | 1300 nM | Cc1ccc(CC2=C(COc3ccc(CCC(=O)O)cc3)CCC2)cc1 [Compound 346, 3-[4-[[2-(p-tolylmethyl)cyclopenten-1-yl]methoxy]phenyl]Propanoic Acid]
28 | 897 nM | 1800 nM | Cc1ccc(CC2=C(COc3cc(C)c(CCC(=O)O)cc3F)CCC2)cc1 [Compound 347, 3-[5-fluoro-2-methyl-4-[[2-(p-tolylmethyl)cyclopenten-1-yl]methoxy]phenyl]Propanoic Acid]
29 | 57 nM | 2360 nM | Cc1ccc(CC2=C(COc3ccc(CCC(=O)O)c(Cl)c3)CCC2)cc1 [Compound 348, 3-[2-chloro-4-[[2-(p-tolylmethyl)cyclopenten-1-yl]methoxy]phenyl]Propanoic Acid]
30 | 60 nM | 1900 nM | O=C(O)CCc1ccc(OCC2=C(Cc3ccc(F)cc3)CCC2)cc1Cl [Compound 349, 3-[2-chloro-4-[[2-[(4-fluorophenyl)methyl]cyclopenten-1-yl]methoxy]phenyl]Propanoic Acid]
31 | 669 nM | 1770 nM | Cc1cc(OCC2=C(Cc3ccc(F)cc3)CCC2)c(F)cc1CCC(=O)O [Compound 350, 3-[5-fluoro-4-[[2-[(4-fluorophenyl)methyl]cyclopenten-1-yl]methoxy]-2-methyl-phenyl]Propanoic Acid]
32 | 1230 nM | > 5000 nM | O=C(O)CCc1ccc(OCC2=C(C3CC3)CCC2)cc1C(F)(F)F [Compound 351, 3-[4-[(2-cyclopropylcyclopenten-1-yl)methoxy]-2-(trifluoromethyl)phenyl]Propanoic Acid]
33 | > 10000 nM | > 5000 nM | Cc1cc(OCC2=C(C3=CCCCC3)CCC2)c(F)cc1CCC(=O)O [Compound 352, 3-[4-[[2-(cyclohexen-1-yl)cyclopenten-1-yl]methoxy]-5-fluoro-2-methyl-phenyl]Propanoic Acid]
